Data taken from ChEMBL document CHEMBL1157186, “Characterization of chemical components in extracts from Si-wu decoction with proliferation-promoting effects on rat mesenchymal stem cells” (Bioorg Med Chem, 2008).
Active and inactive are the calls of the source. The calls are words filed in the database; no cut-off is given here.

Test system: Mesenchymal stem cell
Assay: Induction of proliferation of rat mesenchymal stem cells by MTT assay
Type: functional, cell-based

SMILES	Activity
CC/C=C1\OC(=O)C2=C1C=CC(O)C2O (configuration not stated)	Active
CCC/C=C1\OC(=O)C2=C1CCC=C2	Active
